These results are taken from PMC8063180 (Cell Reports. Physical Science, 2021).

For orientation: solubility means the dissolved amount per volume that the medium holds.

A short description of one series: physchem. It is filed as physicochemical. The conditions noted are these: for Fold lower critical concentration compared with AFA: at the highest measured temperature.
For series [1] the following is noted: aqueous solution; cited from earlier work.
The format of series [2] is physicochemical. The conditions noted are these: for Effect of polyphenols (EGCG, TA, RA) on critical soluble concentration: increasing inhibitor ratio, dose-dependent.
The nature of the next series: Dynamic light scattering. It is filed as physicochemical. The conditions noted are these: pH 6.8, room temperature.
Where [3] appears, read: pH 6.8, Water solubility (critical soluble concentration), pure water, room temperature, pH 6.8.
Where [4] appears, read: water, room temperature, pH 6.8.

≈ marks a conversion by molar mass, not a printed value. Peptide text beside a SMILES is read from it.

On to `C[C@H](N)C(=O)N[C@@H](Cc1ccccc1)C(=O)N[C@@H](C)C(=O)O` [AFA, Ala-Phe-Ala] (H-Ala-Phe-Ala-OH), for which the solubility in the series “physchem” (Water solubility, water, 70°C) turned out to be 702 mM (≈ 216 mg/mL); in the series “physchem” (Water solubility, water, 90°C) it was 720 mM (≈ 221 mg/mL); in “physchem” (Water solubility, water, near the boiling point of water) it was 710 mM (≈ 218 mg/mL); in the series “physchem” (setting [3]), 672 mM (≈ 207 mg/mL). For the same molecule, the Minimal critical concentration in the series “physchem” (around pH 6–7, room temperature) is reported as 668 mM. In the series “physchem” (pH approaching the pKa value of either terminus, room temperature), the Water solubility worked out at 672 mM. Besides, the “Fold higher solubility compared with AAF” value in “physchem” (setting [4]) amounted to 6 fold. The “Fold higher solubility compared with FAA” value in “physchem” (setting [4]) was 15 fold. The Reported critical concentration result in series [1] is “up to 10 mM”. Also, the “Effect of inhibitors (EGCG, TA, RA) on solubility” value in series [2] (molar ratios 1:0.1–1:0.3) was “unable to significantly alter”. Moreover, the DLS cluster size result is given as “persisted” in “Dynamic light scattering” (100 mM in water) and “remained constant” in the series “Dynamic light scattering” (above 40 mM in water).
The molecule `O=C(O)[C@H](Cc1ccccc1)NC(=O)[C@H](Cc1ccccc1)NC(=O)[C@@H]1CCCN1` [PFF, reference compound] (H-Pro-Phe-Phe-OH) gave a solubility in “physchem” (setting [3]) of 2.6 mM (≈ 1.06 mg/mL).
Regarding `C[C@H](N)C(=O)N[C@@H](C)C(=O)N[C@@H](Cc1ccccc1)C(=O)O` [AAF] (H-Ala-Ala-Phe-OH), the “Fold lower critical concentration compared with AFA” value in the series “physchem” is roughly 6 fold. Besides, in the series “physchem” (setting [3]), the concentration in solution (solubility at 2 min) was 105 mM (≈ 32.3 mg/mL). Also, in series [2], the “Effect of polyphenols (EGCG, TA, RA) on critical soluble concentration” value is listed as “significant increase”. The “Fold increase of solubility by TA” value in series [2] (peptide:TA 1:2, versus no inhibitor) was found to be 3 fold. The DLS cluster size result in “Dynamic light scattering” (100 mM in water) is reported as “approximately 4,000 nm”; in “Dynamic light scattering” (above 40 mM in water), “remained constant”.
On to `CC(C)C[C@H](NC(=O)[C@@H](N)Cc1ccccc1)C(=O)O` [FL, reference compound] (H-Phe-Leu-OH), for which the concentration in solution in the series “physchem” (setting [3]) (solubility) was 28.3 mM (≈ 7.88 mg/mL).
On to `N[C@@H](Cc1ccccc1)C(=O)N[C@@H](Cc1ccccc1)C(=O)O` [FF, reference compound] (H-Phe-Phe-OH), for which the solubility in “physchem” (setting [3]) worked out at 8.1 mM (≈ 2.53 mg/mL).
Take `CC(C)C[C@H](N)C(=O)N[C@@H](Cc1ccccc1)C(=O)O` [LF, reference compound] (H-Leu-Phe-OH): the concentration in solution in the series “physchem” (setting [3]) (solubility) came to 19.4 mM (≈ 5.4 mg/mL).
`NCC(=O)N[C@@H](Cc1ccccc1)C(=O)N[C@@H](Cc1ccccc1)C(=O)O` [GFF, reference compound] (H-Gly-Phe-Phe-OH) yielded a solubility in “physchem” (setting [3]) of 14.5 mM (≈ 5.36 mg/mL).
`C[C@H](N)C(=O)N[C@@H](Cc1ccccc1)C(=O)N[C@@H](Cc1ccccc1)C(=O)O` [AFF, reference compound] (H-Ala-Phe-Phe-OH): the solubility in “physchem” (setting [3]) is 98.3 mM (≈ 37.7 mg/mL). The “Fold higher solubility compared with GFF” value in “physchem” (setting [4]) is 6 fold.
Take `C[C@H](NC(=O)[C@H](C)NC(=O)[C@@H](N)Cc1ccccc1)C(=O)O` [FAA] (H-Phe-Ala-Ala-OH): in “physchem”, the “Fold lower critical concentration compared with AFA” value is roughly 15 fold. The molecule also gave a solubility in “physchem” (setting [3]) of 42 mM (≈ 12.9 mg/mL). In series [2], the “Effect of polyphenols (EGCG, TA, RA) on critical soluble concentration” value is on record as “significant increase”. In addition, the DLS cluster size result in “Dynamic light scattering” (above 40 mM in water) is given as “approximately 2000 nm”.
`N[C@@H](Cc1ccccc1)C(=O)N[C@@H](Cc1ccccc1)C(=O)N[C@@H](Cc1ccccc1)C(=O)O` [FFF, reference compound] (H-Phe-Phe-Phe-OH): the solubility in the series “physchem” (setting [3]) was determined as 0.5 mM (≈ 0.23 mg/mL).
